Results on three compounds are retold here after patent US4470986A, “Certain imidazo (1,5-A) pyridine aliphatic carboxylic acid derivatives and their use as selective thromboxane inhibitors” (Ciba-Geigy Corporation, priority 1982, dated 1984).

For one test, the target named is T1, thromboxane synthetase (Homo sapiens, UniProt P24557).
T1 construct: crude microsomal preparation of thromboxane synthetase from lysed human platelets; from tissue; host or cells: lysed human platelets, crude microsomal preparation
T1 sequence (P24557 1-533): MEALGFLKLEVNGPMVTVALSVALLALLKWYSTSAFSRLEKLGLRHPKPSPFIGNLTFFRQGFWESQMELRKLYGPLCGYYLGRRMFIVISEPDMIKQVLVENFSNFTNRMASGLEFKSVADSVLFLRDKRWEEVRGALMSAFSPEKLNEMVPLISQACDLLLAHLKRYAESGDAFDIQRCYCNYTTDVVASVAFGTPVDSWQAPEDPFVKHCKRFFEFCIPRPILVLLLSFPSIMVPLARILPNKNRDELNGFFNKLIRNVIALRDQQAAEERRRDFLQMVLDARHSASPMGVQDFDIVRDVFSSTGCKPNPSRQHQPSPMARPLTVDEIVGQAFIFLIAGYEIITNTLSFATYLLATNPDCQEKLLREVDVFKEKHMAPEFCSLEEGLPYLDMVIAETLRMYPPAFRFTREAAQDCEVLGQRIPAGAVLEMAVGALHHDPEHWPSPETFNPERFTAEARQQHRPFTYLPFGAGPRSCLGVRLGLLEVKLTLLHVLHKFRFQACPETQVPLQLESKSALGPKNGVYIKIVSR
As to the kind of experiment: in vitro inhibition of thromboxane synthetase (TxB2/PGF2 α+β ratio from 14C-arachidonic acid). The class given is biochemical. Particulars: 30 minutes incubation. The procedure:
Res. Comm. 74, 1432 (1977); the testing procedure is as follows:
^14 C-Arachidonic acid is incubated with an enzyme preparation consisting of solubilized and partially purified prostaglandin cyclo-oxygenase from sheep seminal vesicles and a crude microsomal preparation of thromboxane synthetase from lysed human platelets. The test compound (dissolved in buffer, or if necessary, in a small amount of ethanol) is added to the incubation medium. At the end of the incubation period (30 minutes), Prostaglandin E2 (PGE2) is reduced to a mixture of Prostaglandin F2 α and F2 β [PGF2 (α+β)] by addition of sodium borohydride. The radioactive products and excess substrate are extracted into ethyl acetate; the extract is evaporated to dryness; the residue is dissolved in acetone, spotted on thin-layer plates and chromatographed in the solvent system toluene: acetone: glacial acetic acid (100 volumes: 100 volumes: 3 volumes). The radioactive zones are located; those corresponding to Thromboxane B2 (TxB2) and PGF2 α+β are transferred to liquid scintillation vials and counted. The ratio of counts for TxB2 /PGF2 α+β is calculated for each concentration of test compound and IC50 values are determined graphically as the concentration of test compound at which the ratio of TxB2 /PGF2 α+β is reduced to 50% of the control value.

For the next test, the system named is thromboxane B2. The experiment in a line: in vivo reduction of plasma thromboxane B2 in rats after ionophore A23187. As to conditions: rat, oral dose of 5 mg/Kg or lower; ionophore A23187 0.5 mg/kg i.v. two hours after dosing. The procedure:
(§1) The inhibition of the synthesis and the reduction of plasma levels of thromboxane is determined in vivo or administration to rats in the following manner (as adapted from the procedures described by Tai et al. in Anal. Biochem. 87:343, 1978 and by Salmon in Prostaglandins 15:383, 1978):
(§2) Rats are dosed with vehicle or test drug and injected intravenously with ionophore A23187 (0.5 mg/kg) two hours later. Blood is collected for analysis 2 minutes after the ionophore injection. A single aliquot of each plasma sample is assayed for thromboxane B2 and another aliquot for 6-keto-PGF1 α (the stable metabolite of prostacyclin, by radioimmunoassay.

For the next test, the system named is 6-keto-PGF1 α. The experiment in a line: in vivo plasma level of 6-keto-PGF1 α (prostacyclin metabolite) in rats after ionophore A23187. Particulars: rat; ionophore A23187 0.5 mg/kg i.v. two hours after dosing. The procedure:
as §1, §2

For `O=C(CCCCCc1cccc2cncn12)NO` [5-[5-(hydroxycarbamoyl)pentyl]-imidazo[1,5-a]-pyridine], on thromboxane synthetase, the IC50 is roughly 300 nM.
In the case of `O=C(O)CCCCCc1c(OCc2ccccc2)ccc2cncn12` [6-benzyloxy-5-(5-carboxypentyl)imidazo[1,5-a]pyridine], the IC50 at thromboxane synthetase is roughly 3 nM.
For `c1cc(CCCCc2nnn[nH]2)n2cncc2c1` [5-[4-(5-tetrazolyl)butyl]-imidazo[1,5-a]pyridine], the IC50 on thromboxane synthetase was roughly 10 nM. Also, the “reduction of the plasma concentration of thromboxane B2” value in the test on thromboxane B2 is “over 50%”. Moreover, the “increase in the plasma level of the prostacyclin metabolite 6-keto-PGF1 α” value in the test with 6-keto-PGF1 α is recorded as “significant increase”.

A word on the IC50: it is the point on the concentration scale where inhibition reaches its midpoint.
